Where a name gives a salt, the structure may show the parent alone.
Legend:
[1] = molecular target: T1, α-1A adrenoceptor (rat vas deferens) (Rattus norvegicus, UniProt P43140); assay: Functional antagonism: phenylephrine (PE)-induced contraction of rat vas deferens; format: cell-based; details: vs phenylephrine, Schild plot; for Kb: read-out: pA2 Rat Vas Deferens [α-1A] (converted)
T1 construct: PE-induced contraction of rat vas deferens; from tissue; host or cells: rat vas deferens
T1 sequence (P43140 1-466): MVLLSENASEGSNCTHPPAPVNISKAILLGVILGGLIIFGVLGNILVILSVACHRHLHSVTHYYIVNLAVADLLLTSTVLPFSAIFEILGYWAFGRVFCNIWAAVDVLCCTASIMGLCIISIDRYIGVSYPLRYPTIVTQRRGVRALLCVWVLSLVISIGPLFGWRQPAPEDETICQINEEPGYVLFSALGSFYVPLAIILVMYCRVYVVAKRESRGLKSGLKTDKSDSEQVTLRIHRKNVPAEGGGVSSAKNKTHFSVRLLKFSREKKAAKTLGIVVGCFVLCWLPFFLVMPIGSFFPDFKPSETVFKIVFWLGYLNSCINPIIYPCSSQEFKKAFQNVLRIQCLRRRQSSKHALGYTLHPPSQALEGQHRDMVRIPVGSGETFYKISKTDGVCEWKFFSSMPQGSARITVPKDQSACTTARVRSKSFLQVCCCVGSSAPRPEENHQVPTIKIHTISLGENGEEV
Excerpt: (§1) Functional assays indicative of pharmacologically defined α-1 adrenoceptors were used to further characterize compounds. Inhibition of phenylephrine (PE)-induced contraction of canine prostate smooth muscle can be correlated with α-1A adrenoceptor activation. […] For each of these models, agonist dose response curves were repeated against increasing concentrations of test agent to derive a Schild plot [log ([…]) against log (molarity of test agent)] to determine the pA2.

[2] = molecular target: T2, α-1B adrenoceptor (rat spleen) (Rattus norvegicus, UniProt P15823); assay: Functional antagonism: phenylephrine (PE)-induced contraction of rat spleen; format: cell-based; details: for Kb: read-out: pA2 Rat Spleen [α-1B] (converted); for more potent effect on spleen smooth muscle: PE-induced contraction, pA2 models compared
T2 construct: PE-induced contraction of rat spleen; from tissue; host or cells: rat spleen
T2 sequence (P15823 1-515): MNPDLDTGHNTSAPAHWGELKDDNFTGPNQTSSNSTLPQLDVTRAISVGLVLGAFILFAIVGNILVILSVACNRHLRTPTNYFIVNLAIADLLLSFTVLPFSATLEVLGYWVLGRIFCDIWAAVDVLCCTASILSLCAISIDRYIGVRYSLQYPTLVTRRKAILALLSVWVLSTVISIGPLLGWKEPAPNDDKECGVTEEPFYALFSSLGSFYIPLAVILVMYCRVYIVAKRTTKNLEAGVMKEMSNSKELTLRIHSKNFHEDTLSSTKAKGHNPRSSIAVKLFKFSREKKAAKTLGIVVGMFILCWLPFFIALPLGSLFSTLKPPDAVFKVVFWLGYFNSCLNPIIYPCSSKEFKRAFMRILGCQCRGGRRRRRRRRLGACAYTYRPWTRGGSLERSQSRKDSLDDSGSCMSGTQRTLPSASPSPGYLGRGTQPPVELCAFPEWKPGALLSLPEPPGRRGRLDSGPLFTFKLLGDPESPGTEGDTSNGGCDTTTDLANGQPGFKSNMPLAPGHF
Excerpt: as §1

[3] = molecular target: T3, α-1A adrenoceptor (dog prostate) (Canis lupus, UniProt A0A8I3NK63); assay: Functional antagonism: phenylephrine (PE)-induced contraction of canine prostate strips; format: cell-based; details: Table 2a; vs phenylephrine; Schild plot
T3 sequence (A0A8I3NK63 1-466): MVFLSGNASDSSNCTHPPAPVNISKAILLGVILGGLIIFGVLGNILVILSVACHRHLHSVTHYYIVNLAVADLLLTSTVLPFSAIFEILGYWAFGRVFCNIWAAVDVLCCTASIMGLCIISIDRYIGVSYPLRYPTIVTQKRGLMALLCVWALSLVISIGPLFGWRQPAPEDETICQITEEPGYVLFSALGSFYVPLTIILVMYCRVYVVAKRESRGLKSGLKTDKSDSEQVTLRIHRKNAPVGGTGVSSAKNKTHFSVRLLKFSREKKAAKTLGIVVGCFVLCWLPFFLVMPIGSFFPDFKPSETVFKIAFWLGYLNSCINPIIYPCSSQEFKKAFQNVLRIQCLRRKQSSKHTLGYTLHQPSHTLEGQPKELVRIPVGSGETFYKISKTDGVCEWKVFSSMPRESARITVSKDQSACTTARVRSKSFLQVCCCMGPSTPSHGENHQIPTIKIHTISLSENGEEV
Outline: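 Canine prostate smooth-muscle strips in vitro, contracted by phenylephrine. Agonist dose–response curves repeated at rising test-agent concentrations; pA2 derived by Schild plot […].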

[4] = cited from earlier work; for urinary flow rates and subjective symptom scores: longer term studies
[5] = women during antihypertensive treatment; cited from earlier work

Kb [1] [nM] | Kb ([2]; vs phenylephrine, Schild plot) [nM] | pA2 Dog Prostate [α-1A] [3] | SMILES | also measured
1.95 | 25.7 | 8.63 | COc1cccc2c1CC[C@H]1CN(CCn3c(=O)[nH]c4c(sc5ccccc54)c3=O)C[C@@H]21 [Example 9, hydrochloride] | 
10.5 | 56.2 | 8.54 | COc1cccc2c1[C@@H]1CN(CCn3c(=O)[nH]c4c(sc5ccccc54)c3=O)C[C@@H]1CC2 [Example 16, hydrochloride] | 
2.75 | 7.41 | 8.63 | COc1cccc2c1CC[C@H]1CN(CCn3c(=O)[nH]c4c([nH]c5ccccc54)c3=O)C[C@@H]21 [Example 26, 3-[2-((3aR,9bR)-cis-6-Methoxy-2,3,3a,4,5,9b-hexahydro-[1 H]-benz[e]isoindol-1-yl)ethyl]-1H-pyrimido[5.4-b]indole-2,4(1H,3H)-dione hydrochloride] | 
2.24 | 17.4 | 8.78 | COc1cccc2c1CC[C@H]1CN(CCn3c(=O)[nH]c4c(sc5ncccc54)c3=O)C[C@@H]21 [Example 31, 3,2-((3aR,9bR)-cis-6-Methoxy-2,3,3a,4,5,9b-hexahydro-[1H]-benz[e]isoindol-1-yl))ethyl]-pyrido[3',2':4,5]thieno[3,2-d]pyrimidine-2,4(1H,3H)-dione hydrochloride] | 
2.51 | 7.94 | 9.71 | COc1cccc2c1CC[C@H]1CN(CCn3c(=O)[nH]c4c(sc5cnccc54)c3=O)C[C@@H]21 [Example 36, dihydrochloride] | 
 |  | 9.16 | COc1cccc2c1CC[C@H]1CN(CCn3c(=O)[nH]c4c(sc5nccnc54)c3=O)C[C@@H]21 [Example 39] | pA2 Rat Vas Deferens [α-1A] [1]: 8.33; pA2 Rat Spleen [α-1B] ([2]; vs phenylephrine, Schild plot): 7.76
4.37 | 36.3 | 9.09 | COc1cccc2c1CC[C@H]1CN(CCn3c(=O)[nH]c4c(sc5ccc(C(=O)N6CCOCC6)cc54)c3=O)C[C@@H]21 [Example 58, hydrochloride] | 
0.724 | 21.9 | 9.24 | COc1cccc2c1CC[C@H]1CN(CCn3c(=O)[nH]c4c(sc5ccc(Cl)nc54)c3=O)C[C@@H]21 [Example 62, dihydrochloride] | 
0.794 | 25.1 | 9.63 | COc1ccc2sc3c(=O)n(CCN4C[C@@H]5CCc6c(OC)cccc6[C@@H]5C4)c(=O)[nH]c3c2n1 [Example 64, dihydrochloride] | 
2.51 | 69.2 | 8.25 | COc1cccc2c1CC[C@H]1CN(CCn3c(=O)[nH]c4c(sc5cccc(C)c54)c3=O)C[C@@H]21 [Example 69, 3-[2-((3aR,9bR)-cis-6-Methoxy-2,3,3a,4,5,9b-hexahydro-[1H]-benz[e]isoindol-1-yl)ethyl]-[1]-9-methyl-benzothieno[3,2-d]pyrimidine-2,4(1H,3H)-dione hydrochloride] | 
5.89 | 79.4 | 8.04 | COc1cccc2c1CC[C@@H]1CN(CCn3c(=O)[nH]c4c(sc5ncccc54)c3=O)C[C@H]21 [Example 75, hydrochloride] | 
25.1 | 23.4 | 8.74 | COc1cccc2c1CC[C@H]1CN(CCn3c(=O)[nH]c4c(oc5ncccc54)c3=O)C[C@@H]21 [Example 76, hydrochloride] | 
18.2 | 87.1 | 8.67 | COc1cccc2c1CC[C@H]1CN(CCn3c(=O)[nH]c4c(oc5nccnc54)c3=O)C[C@@H]21 [Example 87, hydrochloride] | 
1.1 | 44.7 | 9.35 | COc1cccc2c1CC[C@H]1CN(CCn3c(=O)[nH]c4c(sc5nc(Cl)cnc54)c3=O)C[C@@H]21 [Example 88, 3-[2-(cis-(3aR,9bR)-6-Methoxy-2,3,3a,4,5,9b-hexahydro-[1H]-benz[e]isoindol-1-yl)ethyl]-7-chloro-pyrazino[2',3':4,5]thieno[3,2-d]pyrimidine-2,4(1H,3H)-dione hydrochloride] | 
1.17 | 7.76 | 9.03 | COc1cnc2c(n1)sc1c(=O)n(CCN3C[C@@H]4CCc5c(OC)cccc5[C@@H]4C3)c(=O)[nH]c12 [Example 89, hydrochloride] | 
1.45 | 26.9 | 9.05 | COc1cccc2c1CC[C@H]1CN(CCn3c(=O)c4sc5nccnc5c4n(C(C)C)c3=O)C[C@@H]21 [Example 90, hydrochloride] | 
3.63 | 17.4 | 8.96 | COCCOCCn1c(=O)n(CCN2C[C@@H]3CCc4c(OC)cccc4[C@@H]3C2)c(=O)c2sc3nccnc3c21 [Example 102, hydrochloride] | 
20 | 37.2 | 9.22 | COc1cccc2c1CC[C@H]1CN(CCn3c(=O)[nH]c4c(sc5ccc(O)nc54)c3=O)C[C@@H]21 [Example 107, dihydrochloride] | 
3.39 | 11.2 | 9.03 | COc1cccc2c1CC[C@H]1CN(CCn3c(=O)[nH]c4c(sc5ccc(C#N)nc54)c3=O)C[C@@H]21 [Example 108, dihydrochloride] | 
 |  |  | O=C(NC1CCN(CCc2c[nH]c3ccccc23)CC1)c1ccccc1 [indoramin] | urinary flow rates and subjective symptom scores [4]: significant improvements in urinary flow rates and subjective symptom scores
 |  |  | COc1cc2nc(N3CCN(C(=O)c4ccco4)CC3)nc(N)c2cc1OC [prazosin] | more potent effect on spleen smooth muscle [2]: more potent effect on spleen smooth muscle by approximately an order of magnitude; urinary incontinence [5]: urinary incontinence developed in women; urinary flow rates and subjective symptom scores [4]: significant improvements in urinary flow rates and subjective symptom scores
 |  |  | COc1cc2nc(N3CCN(C(=O)C4CCCO4)CC3)nc(N)c2cc1OC (stereo not shown) [terazosin] | more potent effect on spleen smooth muscle [2]: more potent effect on spleen smooth muscle by approximately an order of magnitude; clinical efficacy in BPH ([4]; human, in vivo): Clinical efficacy of α-1 antagonists in BPH has been demonstrated; urinary flow rates and subjective symptom scores [4]: significant improvements in urinary flow rates and subjective symptom scores

— patent publication US5597823A, “Tricyclic substituted hexahydrobenz [e]isoindole alpha-1 adrenergic antagonists” (priority 1995, dated 1997)
